One assay has as its system mitochondrial proteins. Put plainly: Biotin-switch analysis of mitochondrial protein S-nitrosation. In kind it is biochemical, rat. On the procedure: (§1) Rat heart mitochondria were isolated using differential centrifugation (Tompkins, et al. (2005) Biochim. Biophys. Acta PMID: 16278076). Protein was determined by the Folin-phenol method (Lowry, et al. (1951) J. Bio. Chem. 193:265-75) against a standard curve constructed using bovine serum albumin. Mitochondrial incubations and all subsequent steps were performed in the dark. One mg of mitochondrial protein was suspended in 1 mL of mitochondrial respiration buffer (Tompkins, et al. (2005) supra) containing respiratory substrates glutamate (5 mM), malate (2.5 mM) and succinate (5 mM). […] Samples were centrifuged (5 minutes, 14,000×g), and supernatants removed. The pellets were then resuspended in 1 mL of respiration buffer, and centrifuged again. Pellets were frozen in liquid N2 for subsequent analysis. For ONOO^− treatments, 4 μL of 25 mM ONOO^− stock (100 μM final concentration) was added the cap of the reaction tube, the cap quickly closed and the tube shaken immediately. The process was then repeated twice at 30 second intervals, for a total of 3 additions. Mitochondria were then pelleted, washed, and frozen as for S-nitrosoglutathione samples. Complex I activity was assayed as the rotenone-sensitive oxidation of NADH, at 340 nm in the presence of coenzyme Q1 (Borutaite, et al. (2000) supra). Complex IV was assayed by monitoring the cyanide-sensitive first-order oxidation of reduced cytochrome c, at 550 nm according to established methods (Cleeter, et al. (1994) supra).
For biotin-switch analysis, intact mitochondrial pellets (1 mg protein solubilized in extraction buffer) or chromatography column fractions were analyzed in accordance with known methods (Jaffrey & Snyder (2001) supra). Samples were separated in duplicate on non-reducing SDS-PAGE gels; half the gel was stained with COOMASSIE® blue, and the other half blotted and probed with streptavidin-HRP and ECL™ detection (GE biosciences). Blots and stained gels were aligned, and S-nitrosated proteins excised, trypsinized, and identified by peptide mass fingerprinting. Mass spectra (MALDI-TOF) were analyzed using the MASCOT™ algorithm available on the world-wide web at matrixscience.com.

For assay [1], the target named is T1, mitochondrial complex I (Rattus norvegicus, UniProt Q66HF1).
T1 construct: Rat heart mitochondria were isolated using differential centrifugation; from tissue; host or cells: rat heart mitochondria (male Sprague-Dawley rats)
T1 sequence (Q66HF1 24-727, one chain of several): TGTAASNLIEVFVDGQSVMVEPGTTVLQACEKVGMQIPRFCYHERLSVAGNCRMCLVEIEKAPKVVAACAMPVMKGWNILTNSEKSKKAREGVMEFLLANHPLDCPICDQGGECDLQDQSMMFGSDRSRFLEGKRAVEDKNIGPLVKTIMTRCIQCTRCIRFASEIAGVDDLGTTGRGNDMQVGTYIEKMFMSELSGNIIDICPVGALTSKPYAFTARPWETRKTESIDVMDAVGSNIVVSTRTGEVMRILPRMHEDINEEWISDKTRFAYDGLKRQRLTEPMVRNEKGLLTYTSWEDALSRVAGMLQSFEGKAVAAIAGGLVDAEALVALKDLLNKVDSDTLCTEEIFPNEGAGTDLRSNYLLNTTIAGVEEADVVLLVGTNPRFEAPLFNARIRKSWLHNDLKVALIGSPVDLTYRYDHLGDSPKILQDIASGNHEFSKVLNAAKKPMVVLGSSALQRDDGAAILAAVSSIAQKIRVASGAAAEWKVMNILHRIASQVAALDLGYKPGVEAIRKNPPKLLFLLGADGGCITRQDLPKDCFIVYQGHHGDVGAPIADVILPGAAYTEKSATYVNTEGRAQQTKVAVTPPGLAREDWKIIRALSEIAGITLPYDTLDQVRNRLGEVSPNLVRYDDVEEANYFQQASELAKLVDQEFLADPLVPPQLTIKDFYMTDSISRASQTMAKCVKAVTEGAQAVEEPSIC
Description: Complex I activity (rotenone-sensitive NADH/Co-Q1 oxidation/reduction) in NO donor-treated mitochondria. The format is biochemical. On the procedure:
as §1, with “Complex IV was assayed by monitoring the cyanide-sensitive first-order oxidation of reduced cytochrome c, at 550 nm according to established methods (Cleeter, et al. (1994) supra).” left out

For assay [2], the target named is T1, mitochondrial complex I. Put plainly: Complex I S-nitrosation: blue-native gel isolation followed by chemiluminescent S-nitrosothiol analysis. The format is biochemical. Particulars: 100 μM treatment. The source says:
Efforts to detect S-nitrosation within mitochondrial complex I itself relied on isolating the complex using a modified blue-native gel electrophoresis method, followed by chemiluminescent S-nitrosothiol analysis. […] Chemiluminescent analysis of excised gel bands gave an S-nitrosothiol profile of the gel, with four major peaks. The first of these was in a gel segment enriched in complex I.
Assuming heart mitochondria contain ˜50 pmol complex I per mg protein (Schagger & Pfeiffer (2001) J. Biol. Chem. 276:37861-37867), it was observed that S-nitrosation plateaud at a ˜7:1 mol/mol ratio (i.e., 7 mols S-nitrosothiol per mol complex I), while maximum complex I inhibition was ˜20-25%. This apparent mis-match between the stoichiometry of S-nitrosation (7:1) and the degree of inhibition (25%) may reflect S-nitrosation of complex I on multiple subunits. […]
Chemiluminescent analysis of S-nitrosothiol content was performed on samples originating from blue-native gels, intact mitochondria and SUPEROSE™ 6 chromatography fractions, according to known methodologies (Yang, et al. (2003) Free Radic. Res. 37:1-10). […] Each sample was run in duplicate and quantified using a standard curve created with known concentrations of NaNO2.

The text below walks through data of US20060122267A1, “Compositions and methods for attenuating mitochondria-mediated cell injury” (priority 2003, published 2006).

Regarding `N[C@@H](CCC(=O)N[C@@H](CSN=O)C(=O)NCC(=O)O)C(=O)O` [S-nitrosoglutathione], in the assay on mitochondrial proteins (S-nitrosoglutathione 1 mM, DETA-NONOate 2 mM, ONOO- 3 additions of 100 μM, 37° C., 40 minutes), the “S-nitrosation of entire mitochondrial protein extract, comparison of NO donors” value is given as “far more S-nitrosation than DETA-NONOate or ONOO^−”. Besides, in the assay with mitochondrial proteins (biotin-switch and chemiluminescent data together), the “concentration at which formation of protein bound S-nitrosothiol saturates” value is roughly 250 µM. In addition, the “concentration at which plateau of mitochondrial protein S-nitrosation is reached” value in the assay with mitochondrial proteins (dose response over 50-250 μM) was roughly 200 µM. The “complex I inhibition” value at mitochondrial complex I [1] (S-nitrosoglutathione treatment of mitochondria, exposure to light) is given as “complex I inhibition that was reversible by exposure of mitochondria to light”. Also, the “maximum complex I inhibition” value at mitochondrial complex I [1] (dose response 10-500 μM) is 20-25%. For the same compound, the “share of total S-nitrosothiol originating from complex I” value on mitochondrial complex I [2] is roughly 20%. At mitochondrial complex I [2] (per mg mitochondrial protein), the “S-nitrosothiol originating from complex I” value is reported as 350 pmols.
